What was measured:
RNR (RNR1:RNR2) = RNR (RNR1:RNR2) (Homo sapiens (Human), UniProt P23921+P31350); test: RNR enzyme activity, rapid-fire mass spectrometry (RFMS) assay; assay type: biochemical; conditions: [RNR] 50 nM, 1:1 RNR1:RNR2, [CDP] 5 μM, [ATP] 1 mM, 37° C., 45 min
Description: A rapid-fire mass spectrometry (RFMS) assay was used to assess RNR enzyme activity using a 384 well plate and a robotic platform.
The plate layout included two validated reference compounds (Triapine (3-AP) and Hydroxyurea (HU)): • A dose response in duplicate; top concentration: 5 μM (3-AP) and 250 μM (HU), semi-log • dilutions. • Spike wells in triplicate randomly spotted at four concentrations: • 250 μM, 100 μM, 30 μM and 2 μM for HU • 5 μM, 2 μM, 0.6 μM and 0.04 μM for 3-AP
First, the multidrop pipes were saturated for 30 minutes with enzymatic solution. Then 30 μL of Stop solution was distributed in column 24. Next, 15 μL of enzyme was distributed in column 1 to 24. Next, a pre-incubation step of 15 minutes at room temperature occurred, followed by distribution of 15 μL of substrate solution (column 1 to 24). Next, the plate was incubated for 45 minutes at 37° C. 30 μL of Stop solution was distributed to columns 1 to 23.
The final parameters for the enzyme reactions were: • Incubation: 37° C., 45 min • [CDP]: 5 μM; [ATP]: 1 mM; [NADPH]: No • [RNR]final: 50 nM with 1:1 (RNR1:RNR2) ratio • Final volume: 30 μL • Stop solution: 6% HCOOH containing 2 μM of 15
The compounds were screened at concentrations from 10 nM to 30 μM.

[1] = tested on: pCHK1 (S345) in Colo320 DM cells; test: CHK1 cellular activity (phospho-CHK1 AlphaLisa); assay type: cell-based, human; conditions: compound overnight (approximately 16 hours)
Description: Phospho-CHK1 cellular activity was measured as a marker of replication stress which is a consequence of RNR inhibition.
Colo320 DM cells (ATCC #CCL-220, derived from human colorectal adenocarcinoma, Dukes' type C) were seeded on a 96-well cell culture treated assay plate at a density of 50,000 cells/well in 200 μL of RPMI-1640 media supplemented with 10% Fetal Bovine Serum and incubated at 37 degrees Celsius overnight. The following day, test compound dilutions were added directly to the plated cells by a Tecan digital dispenser to a final DMSO concentration of <0.5% and incubated at 37 degrees Celsius overnight (approximately 16 hours). The following day all culture media is removed from the cells. 75 μL of 1× AlphaLisa lysis buffer is added to each well and plates are agitated on a shaker for 30 minutes at room temperature. The lysis of cells and detection of pCHK1 (S345) are performed with reagents contained within the AlphaLisa Sure Fire assay kit (Perkin Elmer #ALSU-PCHK1-A) according to the manufacturer's instructions. 10 μL of each lysate was then transferred to a white, 384-well assay plate (Perkin Elmer #6008280). 5 μL of Acceptor mix was then added to each well of lysate in the white, 384-well assay plate and incubated in the dark at room temperature for 60 minutes. 5 μL of Donor mix was then added to each well of the white, 384-well assay plate in subdued light and incubated at room temperature for 60 minutes. Plates are read on an Alpha Technology-compatible plate reader using standard AlphaLisa settings.

Chain of RNR (RNR1:RNR2) (P23921 whole entry): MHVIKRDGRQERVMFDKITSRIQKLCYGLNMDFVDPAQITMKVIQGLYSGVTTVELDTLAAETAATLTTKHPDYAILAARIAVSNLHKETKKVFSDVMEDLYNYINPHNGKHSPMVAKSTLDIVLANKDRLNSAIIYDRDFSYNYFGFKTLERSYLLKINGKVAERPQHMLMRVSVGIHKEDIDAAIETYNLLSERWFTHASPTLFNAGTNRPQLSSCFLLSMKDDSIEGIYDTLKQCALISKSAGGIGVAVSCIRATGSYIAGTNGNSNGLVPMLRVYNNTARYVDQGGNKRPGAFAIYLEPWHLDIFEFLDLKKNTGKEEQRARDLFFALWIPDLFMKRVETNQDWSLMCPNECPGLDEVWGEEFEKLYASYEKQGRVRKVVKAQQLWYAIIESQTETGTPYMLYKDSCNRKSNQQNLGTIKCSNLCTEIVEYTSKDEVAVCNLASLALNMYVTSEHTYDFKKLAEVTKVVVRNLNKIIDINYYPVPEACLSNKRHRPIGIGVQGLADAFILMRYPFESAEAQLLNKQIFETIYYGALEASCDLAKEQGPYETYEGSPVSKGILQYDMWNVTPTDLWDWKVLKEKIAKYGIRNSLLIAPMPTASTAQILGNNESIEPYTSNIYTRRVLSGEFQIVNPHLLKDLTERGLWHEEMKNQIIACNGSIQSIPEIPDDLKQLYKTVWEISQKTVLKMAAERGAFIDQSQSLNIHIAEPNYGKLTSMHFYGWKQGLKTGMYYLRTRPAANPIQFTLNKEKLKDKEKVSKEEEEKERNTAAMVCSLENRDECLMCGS
Chain of RNR (RNR1:RNR2) (P31350 whole entry): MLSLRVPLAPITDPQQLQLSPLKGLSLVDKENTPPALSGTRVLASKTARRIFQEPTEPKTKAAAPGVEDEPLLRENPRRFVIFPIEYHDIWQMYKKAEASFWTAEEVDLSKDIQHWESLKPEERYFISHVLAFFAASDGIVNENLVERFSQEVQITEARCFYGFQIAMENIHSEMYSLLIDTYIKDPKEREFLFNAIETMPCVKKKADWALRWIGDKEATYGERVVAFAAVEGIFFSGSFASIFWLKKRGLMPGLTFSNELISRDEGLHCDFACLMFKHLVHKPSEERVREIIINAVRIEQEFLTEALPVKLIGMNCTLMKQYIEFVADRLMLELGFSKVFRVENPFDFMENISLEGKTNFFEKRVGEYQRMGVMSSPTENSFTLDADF

| IC50 (RNR (RNR1:RNR2)) | IC50 ([1]; Homo sapiens, COLO 320DM, 16 h) | IC50 [1] | Structure (SMILES) |
| --- | --- | --- | --- |
| ≤ 0.1 µM | ≤ 10 µM |  | Cc1ccc(F)c([C@@H](C)[C@H](NS(=O)(=O)c2ccc(Cl)c3c2OCCN3C)c2nn[nH]n2)c1C [Example 29, 5-chloro-N-((1S,2R)-2-(6-fluoro-2,3-dimethylphenyl)-1-(2H-tetrazol-5-yl)propyl)-4-methyl-3,4-dihydro-2H-benzo[b][1,4]oxazine-8-sulfonamide] |
| ≤ 0.1 µM | 50 to 100 µM |  | Cc1ccc(F)c([C@@H](C)[C@H](NS(=O)(=O)c2ccc(Cl)c3c2OCC[C@@H]3O)c2nn[nH]n2)c1C [Example 10, (S)-5-chloro-N-((1S,2R)-2-(6-fluoro-2,3-dimethylphenyl)-1-(2H-tetrazol-5-yl)propyl)-4-hydroxychromane-8-sulfonamide] |
| 0.1 to 1 µM | 50 to 100 µM |  | Cc1ccc(F)c([C@@H](C)[C@H](NS(=O)(=O)c2ccc(Cl)cc2O)c2nn[nH]n2)c1C [Example 41, 4-chloro-N-((1S,2R)-2-(6-fluoro-2,3-dimethylphenyl)-1-(2H-tetrazol-5-yl)propyl)-2-hydroxybenzenesulfonamide] |
| ≤ 0.1 µM |  | 30 to 50 µM | Cc1ccc(F)c([C@@H](C)[C@H](NS(=O)(=O)c2ccc(Cl)c3c2OCC[C@@]3(C)O)c2nn[nH]n2)c1C [Example 7, 5-((1S,2R)-1-(((R)-5-chloro-4-hydroxy-4-methylchromane)-8-sulfonamido)-2-(6-fluoro-2,3-dimethylphenyl)propyl)tetrazol-2-ide] |
| 0.1 to 1 µM | 10 to 30 µM |  | Cc1cc(S(=O)(=O)N[C@H](c2nn[nH]n2)[C@H](C)c2c(F)ccc(C)c2C)ccc1Cl [Example 48] |
| ≤ 0.1 µM | 10 to 30 µM |  | Cc1ccc(F)c([C@@H](C)[C@H](NS(=O)(=O)c2ccc(Cl)cc2N(C)CCO)c2nn[nH]n2)c1C [Example 77, 4-chloro-N-((1S,2R)-2-(6-fluoro-2,3-dimethylphenyl)-1-(2H-tetrazol-5-yl)propyl)-2-((2-hydroxyethyl)(methyl)amino)benzenesulfonamide] |
| 0.1 to 1 µM | 50 to 100 µM |  | Cc1ccc(F)c([C@@H](C)[C@H](NS(=O)(=O)c2cccc3[nH]c(=O)ccc23)c2nn[nH]n2)c1C [Example 47] |
| ≤ 0.1 µM | 50 to 100 µM |  | Cc1ccc(F)c([C@@H](C)[C@H](NS(=O)(=O)c2ncc(Br)cc2C(N)=O)c2nn[nH]n2)c1C (racemic) [Example 15, rac-5-bromo-2-(N-((1R,2S)-2-(6-fluoro-2,3-dimethylphenyl)-1-(2H-tetrazol-5-yl)propyl)sulfamoyl)nicotinamide] |
| 0.1 to 1 µM | 30 to 50 µM |  | Cc1ccc(F)c([C@@H](C)[C@H](NS(=O)(=O)c2ccc(Cl)cc2CC(=O)N(C)C)c2nn[nH]n2)c1C [Example 22, 2-(5-chloro-2-(N-((1S,2R)-2-(6-fluoro-2,3-dimethylphenyl)-1-(2H-tetrazol-5-yl)propyl)sulfamoyl)phenyl)-N,N-dimethylacetamide] |
| ≤ 0.1 µM | 10 to 30 µM |  | Cc1ccc(F)c([C@@H](C)[C@H](NS(=O)(=O)c2ccc(Cl)c(C)c2Cl)c2nn[nH]n2)c1C [Example 55, 2,4-dichloro-N-((1S,2R)-2-(6-fluoro-2,3-dimethylphenyl)-1-(2H-tetrazol-5-yl)propyl)-3-methylbenzenesulfonamide] |

Further lines, the compound ahead of its results:

| Structure (SMILES) | IC50 (RNR (RNR1:RNR2)) | IC50 ([1]; Homo sapiens, COLO 320DM, 16 h) | IC50 [1] |
| --- | --- | --- | --- |
| Cc1ccc(F)c([C@@H](C)[C@H](NS(=O)(=O)c2cc(Cl)c(Cl)cc2F)c2nn[nH]n2)c1C [Example 40, 4,5-dichloro-2-fluoro-N-((1S,2R)-2-(6-fluoro-2,3-dimethylphenyl)-1-(2H-tetrazol-5-yl)propyl)benzenesulfonamide] | 1 to 5 µM | 50 to 100 µM |  |
| Cc1ccc(F)c([C@@H](C)[C@H](NS(=O)(=O)c2ccc(Cl)c3c2OCCC3=O)c2nn[nH]n2)c1C [Example 9, 5-chloro-N-((1S,2R)-2-(6-fluoro-2,3-dimethylphenyl)-1-(2H-tetrazol-5-yl)propyl)-4-oxochromane-8-sulfonamide] | ≤ 0.1 µM | 50 to 100 µM |  |
| Cc1ccc(F)c([C@@H](C)[C@H](NS(=O)(=O)c2ccc(Cl)cc2CC(N)=O)c2nn[nH]n2)c1C [Example 23, 2-(5-chloro-2-(N-((1S,2R)-2-(6-fluoro-2,3-dimethylphenyl)-1-(2H-tetrazol-5-yl)propyl)sulfamoyl)phenyl)acetamide] | 0.1 to 1 µM | 50 to 100 µM |  |
| Cc1ccc(F)c([C@@H](C)[C@H](NS(=O)(=O)c2ccc(Cl)cc2OC(F)F)c2nn[nH]n2)c1C [Example 27, 4-chloro-2-(difluoromethoxy)-N-((1S,2R)-2-(6-fluoro-2,3-dimethylphenyl)-1-(2H-tetrazol-5-yl)propyl)benzenesulfonamide] | ≤ 0.1 µM | 10 to 30 µM |  |
| Cc1ccc(F)c([C@@H](C)[C@H](NS(=O)(=O)c2ccc(Cl)cc2CC(=O)N2CCCCC2)c2nn[nH]n2)c1C [Example 24, 4-chloro-N-((1S,2R)-2-(6-fluoro-2,3-dimethylphenyl)-1-(2H-tetrazol-5-yl)propyl)-2-(2-oxo-2-(piperidin-1-yl)ethyl)benzenesulfonamide] | 0.1 to 1 µM | 10 to 30 µM |  |
| COC(=O)Cc1cc(Cl)ccc1S(=O)(=O)N[C@H](c1nn[nH]n1)[C@H](C)c1c(F)ccc(C)c1C (racemic) [Example 14, rac-methyl 2-(5-chloro-2-(N-((1R,2S)-2-(6-fluoro-2,3-dimethylphenyl)-1-(2H-tetrazol-5-yl)propyl)sulfamoyl)phenyl)acetate] | 0.1 to 1 µM | 10 to 30 µM |  |
| Cc1cc(S(=O)(=O)N[C@H](c2nn[nH]n2)[C@H](C)c2c(F)ccc(C)c2C)c(C)cc1Cl [Example 31, 4-chloro-N-((1S,2R)-2-(6-fluoro-2,3-dimethylphenyl)-1-(2H-tetrazol-5-yl)propyl)-2,5-dimethylbenzenesulfonamide] | 1 to 5 µM | 50 to 100 µM |  |
| Cc1ccc(F)c([C@@H](C)[C@H](NS(=O)(=O)c2ccc(Cl)cc2F)c2nn[nH]n2)c1C [Example 19, 4-chloro-2-fluoro-N-((1S,2R)-2-(6-fluoro-2,3-dimethylphenyl)-1-(2H-tetrazol-5-yl)propyl)benzenesulfonamide] | 0.1 to 1 µM | 10 to 30 µM |  |
| Cc1ccc(F)c([C@@H](C)[C@H](NS(=O)(=O)c2ccc(Cl)cc2CC(=O)O)c2nn[nH]n2)c1C [Example 18, 2-(5-chloro-2-(N-((1S,2R)-2-(6-fluoro-2,3-dimethylphenyl)-1-(2H-tetrazol-5-yl)propyl)sulfamoyl)phenyl)acetic acid] | ≤ 0.1 µM | 50 to 100 µM |  |
| Cc1ccc(F)c([C@@H](C)[C@H](NS(=O)(=O)c2ccc(Cl)c3nonc23)c2nn[nH]n2)c1C [Example 46] | 0.1 to 1 µM | 50 to 100 µM |  |
| Cc1ccc(F)c([C@@H](C)[C@H](NS(=O)(=O)c2ccc(C#N)cc2OC(F)F)c2nn[nH]n2)c1C (racemic) [Example 69, rac-4-cyano-2-(difluoromethxoy)-N-((1R,2S)-2-(6-fluoro-2,3-dimethylphenyl)-1-(2H-tetrazol-5-yl)propyl)benzenesulfonamide] | 0.1 to 1 µM | 50 to 100 µM |  |
| Cc1ccc(F)c([C@@H](C)[C@H](NS(=O)(=O)c2ccc(Cl)cc2)c2nn[nH]n2)c1C [Example 33, 4-chloro-N-((1S,2R)-2-(6-fluoro-2,3-dimethylphenyl)-1-(2H-tetrazol-5-yl)propyl)benzenesulfonamide] | 0.1 to 1 µM | 30 to 50 µM |  |
| Cc1ccc(F)c([C@@H](C)[C@H](NS(=O)(=O)c2ccc(Cl)c3c2OCCC3)c2nn[nH]n2)c1C [Example 74, 5-chloro-N-((1S,2R)-2-(6-fluoro-2,3-dimethylphenyl)-1-(2H-tetrazol-5-yl)propyl)chromane-8-sulfonamide] | ≤ 0.1 µM | ≤ 10 µM |  |
| Cc1ccc(F)c([C@@H](C)[C@H](NS(=O)(=O)c2ccc(Cl)c3c2OCC[C@]3(C)O)c2nn[nH]n2)c1C (single isomer, unassigned) [Example 3] | ≤ 0.1 µM | 10 to 30 µM |  |
